From PubChem BioAssay AID1259407 (Chemical Carcinogenesis Research Information System (CCRIS), 2018)
Activity calls are given as the source filed them. No rule for the calls is given here.

System: CCRIS mutagenicity, Ames/micronucleus/aberration tests
Assay: CCRIS mutagenicity studies
[1] = Test System: AMES SALMONELLA TYPHIMURIUM, Strain/Indicator: TA98, Metabolic Activation: NONE, Method: STANDARD PLATE
[2] = Test System: AMES SALMONELLA TYPHIMURIUM, Strain/Indicator: TA98, Metabolic Activation: RAT, LIVER, S-9, AROCLOR 1254, Method: STANDARD PLATE
[3] = Test System: AMES SALMONELLA TYPHIMURIUM, Strain/Indicator: TA100, Metabolic Activation: RAT, LIVER, S-9, AROCLOR 1254, Method: STANDARD PLATE
[4] = Test System: AMES SALMONELLA TYPHIMURIUM, Strain/Indicator: TA1535, Metabolic Activation: NONE, Method: STANDARD PLATE
[5] = Test System: AMES SALMONELLA TYPHIMURIUM, Strain/Indicator: TA1535, Metabolic Activation: RAT, LIVER, S-9, AROCLOR 1254, Method: STANDARD PLATE
[6] = Test System: AMES SALMONELLA TYPHIMURIUM, Strain/Indicator: TA1537, Metabolic Activation: NONE, Method: STANDARD PLATE
[7] = Test System: AMES SALMONELLA TYPHIMURIUM, Strain/Indicator: TA1537, Metabolic Activation: RAT, LIVER, S-9, AROCLOR 1254, Method: STANDARD PLATE

**Q.** Which mutagenic call (End Point: IN VIVO MICRONUCLEUS, Test System: BONE MARROW POLYCHROMATIC ERYTHROCYTES, Species: MOUSE, Strain/Sex: B6C3F1/MALE, Route: IP INJECTION IN CORN OIL) does the source give for `O=C1c2ccccc2C(=O)c2ccccc21` here?
**A.** inactive; negative

**Q.** And the mutagenic call (End Point: IN VIVO MICRONUCLEUS, Test System: PERIPHERAL BLOOD ERYTHROCYTES, Species: MOUSE, Strain/Sex: B6C3F1/MALE, FEMALE, Route: DIET)?
**A.** active; positive (at highest dose); (99.8% pure)

**Q.** What about the mutagenic call (Test System: AMES SALMONELLA TYPHIMURIUM, Strain/Indicator: TA97, Metabolic Activation: NONE, Method: STANDARD PLATE) of the same molecule?
**A.** inactive; negative

**Q.** And the mutagenic call (Test System: AMES SALMONELLA TYPHIMURIUM, Strain/Indicator: TA97, Metabolic Activation: RAT, LIVER, S-9, PCB, Method: STANDARD PLATE)?
**A.** inactive; negative

**Q.** And the mutagenic call (Test System: AMES SALMONELLA TYPHIMURIUM, Strain/Indicator: TA98, Metabolic Activation: HAMSTER, LIVER, S-9, AROCLOR 1254, Method: STANDARD PLATE)?
**A.** inactive; negative

**Q.** What about the mutagenic call [1] of the same molecule?
**A.** inactive; negative

**Q.** What about the mutagenic call (Test System: AMES SALMONELLA TYPHIMURIUM, Strain/Indicator: TA98, Metabolic Activation: RAT LIVER S-9, AROCLOR, Method: STANDARD PLATE) of the same molecule?
**A.** inactive; negative

**Q.** What about the mutagenic call (Test System: AMES SALMONELLA TYPHIMURIUM, Strain/Indicator: TA98, Metabolic Activation: RAT LIVER S-9, PHENOBARBITAL AND BETA-NAPHTHOFLAVONE (30%), Method: PREINCUBATION) of the same molecule?
**A.** inactive; negative

**Q.** What about the mutagenic call (Test System: AMES SALMONELLA TYPHIMURIUM, Strain/Indicator: TA98, Metabolic Activation: RAT LIVER S-9, PHENOBARBITAL AND BETA-NAPHTHOFLAVONE, Method: PREINCUBATION) of the same molecule?
**A.** inactive; negative

**Q.** What about the mutagenic call (Test System: AMES SALMONELLA TYPHIMURIUM, Strain/Indicator: TA98, Metabolic Activation: RAT, LIVER S-9, AROCLOR 1254 (10%, 30%), Method: PREINCUBATION) of the same molecule?
**A.** inactive; negative; 99.8% pure

**Q.** What about the mutagenic call [2] of the same molecule?
**A.** inactive; negative

**Q.** What about the mutagenic call (Test System: AMES SALMONELLA TYPHIMURIUM, Strain/Indicator: TA98, Metabolic Activation: RAT, LIVER, S-9, PCB, Method: STANDARD PLATE) of the same molecule?
**A.** inactive; negative

**Q.** What about the mutagenic call (Test System: AMES SALMONELLA TYPHIMURIUM, Strain/Indicator: TA100, Metabolic Activation: HAMSTER, LIVER, S-9, AROCLOR 1254, Method: STANDARD PLATE) of the same molecule?
**A.** inactive; negative

**Q.** And the mutagenic call (Test System: AMES SALMONELLA TYPHIMURIUM, Strain/Indicator: TA100, Metabolic Activation: NONE, Method: STANDARD PLATE)?
**A.** inactive; negative

**Q.** What about the mutagenic call (Test System: AMES SALMONELLA TYPHIMURIUM, Strain/Indicator: TA100, Metabolic Activation: RAT LIVER S-9, AROCLOR, Method: STANDARD PLATE) of the same molecule?
**A.** inactive; negative

**Q.** And the mutagenic call (Test System: AMES SALMONELLA TYPHIMURIUM, Strain/Indicator: TA100, Metabolic Activation: RAT LIVER S-9, PHENOBARBITAL AND BETA-NAPHTHOFLAVONE (30%), Method: PREINCUBATION)?
**A.** inactive; negative

**Q.** And the mutagenic call (Test System: AMES SALMONELLA TYPHIMURIUM, Strain/Indicator: TA100, Metabolic Activation: RAT LIVER S-9, PHENOBARBITAL AND BETA-NAPHTHOFLAVONE, Method: PREINCUBATION)?
**A.** inactive; negative

**Q.** What about the mutagenic call (Test System: AMES SALMONELLA TYPHIMURIUM, Strain/Indicator: TA100, Metabolic Activation: RAT, LIVER S-9, AROCLOR 1254 (10%, 30%), Method: PREINCUBATION) of the same molecule?
**A.** inactive; negative; 99.8% pure

**Q.** What about the mutagenic call [3] of the same molecule?
**A.** inactive; negative

**Q.** And the mutagenic call (Test System: AMES SALMONELLA TYPHIMURIUM, Strain/Indicator: TA100, Metabolic Activation: RAT, LIVER, S-9, PCB, Method: STANDARD PLATE)?
**A.** inactive; negative

**Q.** And the mutagenic call (Test System: AMES SALMONELLA TYPHIMURIUM, Strain/Indicator: TA102, Metabolic Activation: NONE, Method: PREINCUBATION)?
**A.** inactive; negative; 100% pure

**Q.** What about the mutagenic call (Test System: AMES SALMONELLA TYPHIMURIUM, Strain/Indicator: TA102, Metabolic Activation: RAT, LIVER, S-9, AROCLOR 1254 (10%), Method: PREINCUBATION) of the same molecule?
**A.** inactive; negative; 100% pure

**Q.** What about the mutagenic call (Test System: AMES SALMONELLA TYPHIMURIUM, Strain/Indicator: TA102, Metabolic Activation: RAT, LIVER, S-9, AROCLOR 1254, Method: STANDARD PLATE) of the same molecule?
**A.** inactive; negative

**Q.** And the mutagenic call (Test System: AMES SALMONELLA TYPHIMURIUM, Strain/Indicator: TA1535, Metabolic Activation: HAMSTER, LIVER, S-9, AROCLOR 1254, Method: STANDARD PLATE)?
**A.** inactive; negative

**Q.** What about the mutagenic call (Test System: AMES SALMONELLA TYPHIMURIUM, Strain/Indicator: TA1535, Metabolic Activation: NONE, Method: PREINCUBATION) of the same molecule?
**A.** inactive; negative

**Q.** What about the mutagenic call [4] of the same molecule?
**A.** inactive; negative

**Q.** And the mutagenic call (Test System: AMES SALMONELLA TYPHIMURIUM, Strain/Indicator: TA1535, Metabolic Activation: RAT LIVER S-9, AROCLOR, Method: STANDARD PLATE)?
**A.** inactive; negative

**Q.** What about the mutagenic call (Test System: AMES SALMONELLA TYPHIMURIUM, Strain/Indicator: TA1535, Metabolic Activation: RAT LIVER S-9, PHENOBARBITAL AND BETA-NAPHTHOFLAVONE (30%), Method: PREINCUBATION) of the same molecule?
**A.** inactive; negative

**Q.** And the mutagenic call (Test System: AMES SALMONELLA TYPHIMURIUM, Strain/Indicator: TA1535, Metabolic Activation: RAT LIVER S-9, PHENOBARBITAL AND BETA-NAPHTHOFLAVONE, Method: PREINCUBATION)?
**A.** inactive; negative

**Q.** What about the mutagenic call [5] of the same molecule?
**A.** inactive; negative

**Q.** What about the mutagenic call (Test System: AMES SALMONELLA TYPHIMURIUM, Strain/Indicator: TA1537, Metabolic Activation: HAMSTER, LIVER, S-9, AROCLOR 1254, Method: STANDARD PLATE) of the same molecule?
**A.** inactive; negative

**Q.** What about the mutagenic call [6] of the same molecule?
**A.** inactive; negative

**Q.** And the mutagenic call (Test System: AMES SALMONELLA TYPHIMURIUM, Strain/Indicator: TA1537, Metabolic Activation: RAT LIVER S-9, AROCLOR, Method: STANDARD PLATE)?
**A.** inactive; negative

**Q.** What about the mutagenic call (Test System: AMES SALMONELLA TYPHIMURIUM, Strain/Indicator: TA1537, Metabolic Activation: RAT LIVER S-9, PHENOBARBITAL AND BETA-NAPHTHOFLAVONE (30%), Method: PREINCUBATION) of the same molecule?
**A.** active; positive

**Q.** What about the mutagenic call (Test System: AMES SALMONELLA TYPHIMURIUM, Strain/Indicator: TA1537, Metabolic Activation: RAT LIVER S-9, PHENOBARBITAL AND BETA-NAPHTHOFLAVONE, Method: PREINCUBATION) of the same molecule?
**A.** inactive; negative

**Q.** What about the mutagenic call (Test System: AMES SALMONELLA TYPHIMURIUM, Strain/Indicator: TA1537, Metabolic Activation: RAT, LIVER S-9, AROCLOR 1254 (10%, 30%), Method: PREINCUBATION) of the same molecule?
**A.** inactive; negative; 99.8% pure

**Q.** What about the mutagenic call [7] of the same molecule?
**A.** inactive; negative

**Q.** And the mutagenic call (Test System: E. COLI, Strain/Indicator: WP2 UVRA, Metabolic Activation: NONE, Method: STANDARD PLATE)?
**A.** inactive; negative

**Q.** And the mutagenic call (Test System: E. COLI, Strain/Indicator: WP2 UVRA, Metabolic Activation: RAT LIVER S-9, AROCLOR, Method: STANDARD PLATE)?
**A.** inactive; negative

**Q.** What about the mutagenic call (Test System: E.COLI, Strain/Indicator: WP2UVRA, Metabolic Activation: NONE, Method: PREINCUBATION) of the same molecule?
**A.** inactive; negative

**Q.** And the mutagenic call (Test System: E.COLI, Strain/Indicator: WP2UVRA, Metabolic Activation: RAT LIVER S-9, PHENOBARBITAL AND BETA-NAPHTHOFLAVONE (30%), Method: PREINCUBATION)?
**A.** inactive; negative

**Q.** And the mutagenic call (Test System: E.COLI, Strain/Indicator: WP2UVRA, Metabolic Activation: RAT LIVER S-9, PHENOBARBITAL AND BETA-NAPHTHOFLAVONE, Method: PREINCUBATION)?
**A.** inactive; negative

**Q.** And the mutagenic call (Test System: MOUSE LYMPHOMA, Strain/Indicator: L5178Y (TK+/TK-), Metabolic Activation: NONE, Method: SUSPENSION/PLATE)?
**A.** inactive; negative

**Q.** What about the mutagenic call (Test System: MOUSE LYMPHOMA, Strain/Indicator: L5178Y (TK+/TK-), Metabolic Activation: RAT LIVER S-9, AROCLOR, Method: SUSPENSION/PLATE) of the same molecule?
**A.** inactive; negative

**Q.** `CCOC(=O)NNc1nncc2ccccc12` was tested. Which mutagenic call [1] did it give?
**A.** inactive; negative

**Q.** What about the mutagenic call [2] of the same molecule?
**A.** inactive; negative

**Q.** What about the mutagenic call [3] of the same molecule?
**A.** inactive; negative

**Q.** What about the mutagenic call (Test System: AMES SALMONELLA TYPHIMURIUM, Strain/Indicator: TA100, Metabolic Activation: RAT, LIVER, S-9, PHENOBARBITAL, Method: STANDARD PLATE) of the same molecule?
**A.** active; positive

**Q.** And the mutagenic call [4]?
**A.** inactive; negative

**Q.** And the mutagenic call [5]?
**A.** inactive; negative

**Q.** What about the mutagenic call [6] of the same molecule?
**A.** inactive; negative

**Q.** And the mutagenic call [7]?
**A.** inactive; negative

**Q.** And the mutagenic call (Test System: AMES SALMONELLA TYPHIMURIUM, Strain/Indicator: TA1538, Metabolic Activation: NONE, Method: STANDARD PLATE)?
**A.** inactive; negative

**Q.** What about the mutagenic call (Test System: AMES SALMONELLA TYPHIMURIUM, Strain/Indicator: TA1538, Metabolic Activation: RAT, LIVER, S-9, AROCLOR 1254, Method: STANDARD PLATE) of the same molecule?
**A.** inactive; negative

**Q.** And the mutagenic call (Test System: UDS RAT HEPATOCYTES, Strain/Indicator: THY INCORP, Metabolic Activation: NONE, Method: AUTORADIOGRAPHY)?
**A.** inactive; negative
